Experimental data reported in patent publication US20150258129A1, “Method for Increasing the Activity of Lysosomal Enzymes” (Mount Sinai School of Medicine of New York University, priority 1998, published 2015).

Assays:
[1] = target: T1, glucocerebrosidase (β-Glu), N370S/N370S (Homo sapiens, UniProt P04062, N409S); test: Intracellular enhancement of β-Glu activity in Gaucher fibroblasts (N370S/N370S); assay type: cell-based
T1 construct: endogenous in cells; host or cells: human Gaucher patient fibroblasts, genotype N370S/N370S
T1 sequence (P04062 40-536 N409S): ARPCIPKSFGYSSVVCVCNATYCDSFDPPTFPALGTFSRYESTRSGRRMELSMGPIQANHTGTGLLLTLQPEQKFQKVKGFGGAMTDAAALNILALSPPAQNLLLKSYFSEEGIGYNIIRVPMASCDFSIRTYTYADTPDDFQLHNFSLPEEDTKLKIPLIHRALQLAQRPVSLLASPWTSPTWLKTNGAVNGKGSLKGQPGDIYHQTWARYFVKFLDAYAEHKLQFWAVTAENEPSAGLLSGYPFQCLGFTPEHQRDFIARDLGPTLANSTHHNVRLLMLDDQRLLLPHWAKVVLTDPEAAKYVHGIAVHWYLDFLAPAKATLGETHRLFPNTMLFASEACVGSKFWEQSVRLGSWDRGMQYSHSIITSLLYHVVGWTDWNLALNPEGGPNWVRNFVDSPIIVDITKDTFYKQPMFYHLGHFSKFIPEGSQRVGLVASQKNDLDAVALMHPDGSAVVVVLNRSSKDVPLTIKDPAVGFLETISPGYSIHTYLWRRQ

[2] = system: almond β-galactosidase; details: cited from earlier work

## OC[C@H]1CNC[C@@H](O)[C@@H]1O [compound 33, isofagomine]
[1]; N370S/N370S, 1-50 μM in the culture medium, FIG. 8A
  increase of intracellular β-Glu activity in Gaucher fibroblasts: 55-80%
[1]; N370S/N370S, day 1 or 2, FIG. 8B
  residual β-Glu activity in Gaucher cells, time course: did not change
[1]; N370S/N370S, day 5, FIG. 8B
  increase of β-Glu activity in Gaucher cells, time course: more than 80%
[1]; N370S/N370S, higher than 50 μM
  β-Glu enhancement effect at high concentration: nullified the enhancement effect
[1]; concentration ranges of 0.05-100 μM
  intracellular β-Glu activity in Gaucher fibroblasts (summary): effectively enhance
[2]
  inhibition of almond β-galactosidase (in words): potent inhibitor
